Measured values from patent publication US20240415858A1, “PROMOTING MYELINATION BY N-ACETYLGLUCOSAMINE AND MODULATION OF N-GLYCAN BRANCHING” (THE REGENTS OF THE UNIVERSITY OF CALIFORNIA, priority 2021, published 2024).

What was measured:
[1] = test system: mouse neural stem cells (NSC) derived from the medial ganglionic eminence of E12.5 mouse embryos; assay: Oligodendrogenesis from mouse neural stem cells in vitro (flow cytometry, immunofluorescence); format: cell-based; conditions: NSC in PDGF-AA differentiation media, 48 hrs
Description: Mice were bred and utilized as approved by the University of California, Irvine Institutional Animal Care and Use Committee. Dorsal forebrain cortical tissue was dissected from the medial ganglionic eminence (MGE) at embryonic day 12.5 (E12) of CD1 mice (Charles River) or Mgat5−/− C57BL/6 mice and their wildtype littermates and placed in dissection buffer comprising PBS, 0.6% glucose, and 50 U/mL Pen/Strep. Tissue from multiple embryos within the same litter were pooled, and a subsequent culture from a single litter was considered a biological repeat. The tissue was dissociated using 0.05% Trypsin-EDTA at 37° C. for 10 min, followed by treatment with soybean trypsin inhibitor (Life Technologies). Dissociated cells were re-suspended in proliferation medium comprising DMEM, 1× B27, 1× N2, 1 mM sodium pyruvate, 2 mM L-glutamine, 1 mM N-acetylcysteine, 20 ng/mL EGF (PeproTech), 10 ng/mL bFGF (PeproTech), and 2 μg/mL heparin and seeded at 150,000 cells/mL (non-tissue culture treated plastic plates) and grown as non-adherent spheres. Cell cultures were passaged approximately every 3 days using enzyme-free NeuroCult Chemical Dissociation Kit (Mouse) (StemCell Technologies). Cultures were passaged at least once prior to experimental use. For experiments, passaged cells were cultured in proliferation media (bFGF and EGF) or differentiation media (bFGF (10 ng/ml) and PDGF-AA (10 ng/ml); Life technologies) for 48 hours with or without the presence of GIcNAc (Ultimate Glucosamine, Wellesley Therapeutics) or kifunensine (GlycoSyn). Neurospheres were dispersed using the enzyme-free NeuroCult kit before being analyzed by flow cytometry using one or more of the following antibodies: anti-CD140a/PDGF-RA PE conjugate (1:200, A15785, Molecular Probes), anti-04 Alexa Fluor 488 conjugated (1:200, FAB1326G, RnD systems), Anti-GaIC Alexa Fluor 647 1:200, MAB342-AF647, Millipore), Anti-Olig2 (1:200, AB9610, Millipore) with anti-rabbit Alexa Fluor 488 (1:200, thermofisher).
For neural stem cell (NSC) immunofluorescence, whole neurospheres were seeded onto laminin-coated coverslips (Neuvitro) in proliferation medium. After 24 hours, proliferation media was removed and replaced with differentiation medium (same components as proliferation medium but excluding EGF, bFGF, and heparin) to induce differentiation. For analysis of mouse brains, brains were incubated in 30% sucrose for at least 72 hours, embedded in OCT (Tissue-tek), frozen for at least 48 hours at −80° C., and then cut at 40 microns on a cryostat. Multiple sections from −1 bregma to −2.5 bregma were then stained with antibodies for MBP (1:100; MAB386, Millipore), Olig2 (1:200; AB9610, Millipore), CC1 (1:100; OP90, Millipore), degraded MBP (1:200, AB5864, Millipore) and Amyloid Precursor Protein (APP, 1:200; clone 22C11). After overnight incubation with primary antibody, tissues were washed and incubated with secondary antibodies: goat anti-rat Alexa-fluor 488 (1:200, Thermofisher), goat anti-rabbit TxRd (1:200, Thermofisher). APP is a marker for neuro-axonal damage while co-staining for CC1 and Olig2 are markers of mature oligodendrocytes. In order to examine the amount of myelin, slices were incubated in Fluoromyelin (1:300; F34651, Thermofisher) for 45 minutes. Images were acquired on a Keyence fluorescence microscope. Mean fluorescence intensity of the medial corpus callosum was measured using ImageJ.
Oligodendrogenesis were examined in vitro using mouse neural stem cells (NSC) derived from the medial ganglionic eminence of E12.5 mouse embryos, where OPC's first appear. […] Consistent with increased PDGFRα surface expression, GIcNAc also promoted pre-oligodendrocyte differentiation as evidenced by augmented expression of Oligodendrocyte Transcription Factor (OLIG2) and increased numbers of 04 and GaIC positive cells (FIGS. 1A, 1B and 1C, FIGS. 5B and 5C). […]

[2] = Brain uptake of oral [U13C]GIcNAc, LC-MS/MS of perfused brains

| Molecule | PDGFRα surface expression [1] | number of O4 cells induced by PDGF-AA differentiation media [1] | UDP-[U13C]-HexNAc in brain ([2]; suckling pups of treated lactating mothers) | UDP-[U13C]-HexNAc in brain ([2]; treated adult female mice, 1 mg/mL in drinking water, perfused brains) |
| --- | --- | --- | --- | --- |
| O=C1N[C@@H]2[C@@H](O)[C@@H](O)[C@H](O)[C@@H](CO)N2C1=O [kifunensine, reference compound] | significantly reduced | significantly reduced |  |  |
| N-Acetyl-D-[UL-^13C6]glucosamine [[U^13C]GIcNAc] |  |  | identified | identified |
